Measured values as given in the supplement of paper PMC10307832.

Assays:
Assay in all cases: relative viability (nuclei count vs DMSO), 5 days (fraction); higher = more cells survive
HG-5-88-01 = compound: CC(C)S(=O)(=O)C1=CC=CC=C1NC2=NC(=NC(=C2Cl)N)NC3=C(C=C(C=C3)N4CCC(CC4)C(=O)N)OC [HG-5-88-01]
In short: (§1)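 Only plates meeting two conditions passed: control CV below 25% and at least one doubling. Lung cancer cell lines, kept overnight at 37 °C in 1536-well plates, were pinned with five library-drug doses (not always all listed) √10 apart on vehicle-anchored plates and grown 5 days without medium change. A one-step fix, permeabilisation and Hoechst stain preceded 4× imaging and MetaXpress nuclear counting. Viability equals treated-well nuclei divided by vehicle-well nuclei, as the median over plates.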

[1] = compound: C[C@@H]1CN(CC(=O)Nc2ccc3c(c2)Cc2cccc(-c4cc(=O)cc(N5CCOCC5)o4)c2S3)C[C@H](C)O1
In short: as §1

Embelin = compound: CCCCCCCCCCCC1=C(O)C(=O)C=C(O)C1=O [Embelin]
In short: as §1

AZ23 = compound: CC(C)Oc1cc(Nc2nc(N[C@@H](C)c3ccc(F)cn3)ncc2Cl)n[nH]1 [AZ23]
In short: as §1

Vatalanib = compound: Clc1ccc(Nc2nnc(Cc3ccncc3)c3ccccc23)cc1 [Vatalanib]
In short: as §1

| Cell Line | relative viability (HG-5-88-01; 0.04 µM) | relative viability (HG-5-88-01; 0.1265 µM) | relative viability (HG-5-88-01; 0.4 µM) | relative viability (HG-5-88-01; 1.265 µM) | relative viability (HG-5-88-01; 4 µM) | relative viability ([1]; 0.04 µM) | relative viability ([1]; 0.1265 µM) | relative viability ([1]; 0.4 µM) | relative viability ([1]; 4 µM) | relative viability (Embelin; 0.08 µM) | relative viability (Embelin; 0.8 µM) | relative viability (Embelin; 2.53 µM) | relative viability (Embelin; 8 µM) | relative viability (AZ23; 0.01 µM) | relative viability (AZ23; 0.03162 µM) | relative viability (AZ23; 0.3162 µM) | relative viability (Vatalanib; 0.04 µM) | relative viability (Vatalanib; 0.1265 µM) | relative viability (Vatalanib; 0.4 µM) | relative viability (Vatalanib; 1.265 µM) | relative viability (Vatalanib; 4 µM) |
| --- | --- | --- | --- | --- | --- | --- | --- | --- | --- | --- | --- | --- | --- | --- | --- | --- | --- | --- | --- | --- | --- |
| 201T | 1.01 | 0.941 | 0.951 | 1.03 | 1.03 | 0.996 | 0.944 | 0.992 | 0.961 | 0.985 | 1.02 | 1.11 | 0.966 | 1.05 | 1.06 | 1.07 | 0.975 | 0.975 | 1.05 | 0.929 | 0.953 |
| A549 | 0.997 | 0.954 | 0.909 | 0.726 | 0.75 | 0.958 | 0.922 | 0.918 | 0.806 | 0.992 | 1.06 | 1.12 | 0.97 | 1.23 | 1.12 | 0.922 | 1.01 | 0.944 | 0.998 | 0.928 | 0.929 |
| A-427 | 0.94 | 1.02 | 1.02 | 1.11 | 0.534 | 0.956 | 0.945 | 1.06 | 0.938 | 1.06 | 1.03 | 1.04 | 0.943 | 0.921 | 1.07 | 1.15 | 1.03 | 0.97 | 0.983 | 0.863 | 0.989 |
| ABC-1 | 0.825 | 1 | 0.732 | 0.75 | 0.778 |  | 1.11 | 0.983 | 1.12 | 0.866 | 1.11 | 0.893 | 1.03 | 0.82 | 1.18 | 1.02 | 0.977 | 0.647 | 0.803 | 0.89 | 0.851 |
| BEN | 0.866 | 1.07 | 0.884 | 0.873 | 1.05 | 0.929 | 0.881 | 1.12 | 0.955 | 1.04 | 1.14 | 1.1 | 1.02 | 1.05 | 1.12 | 0.994 | 0.954 | 0.904 | 0.951 | 0.882 | 0.946 |
| CAL-12T | 0.959 | 1.09 | 0.952 | 0.746 | 0.459 | 1.04 | 1.01 | 1.06 | 0.549 | 1.01 | 1.18 | 0.855 | 0.986 | 0.692 | 1.09 | 0.932 | 0.978 | 0.946 | 0.988 | 0.867 | 0.885 |
| COR-L23 | 1.05 | 1.08 | 0.964 | 0.952 | 0.867 | 1.03 | 1.07 | 1.06 | 0.877 | 1 | 1.18 | 1.06 | 1.16 | 1.03 | 1.11 | 1.15 | 0.971 | 0.977 | 1.13 | 1.01 | 0.994 |
| COR-L 105 | 0.825 | 0.969 | 0.883 | 0.726 | 0.685 | 0.921 | 1.01 | 1.05 | 0.805 | 1.04 | 1.1 | 0.89 | 0.981 | 0.843 | 1.1 | 1.04 | 0.901 | 0.895 | 1.03 | 0.892 | 0.835 |
| Calu-6 | 1.04 | 0.965 | 0.946 | 0.948 | 0.854 | 1.04 | 0.951 | 1.03 | 0.74 | 1.01 | 1.09 | 1.07 | 1.07 |  | 1.09 | 1.01 | 1.06 | 0.958 | 1.06 | 0.949 | 0.976 |
| ChaGo-K-1 | 1.02 | 1.03 | 0.936 | 1.03 | 0.841 | 0.826 | 0.961 | 0.967 | 0.979 | 1.06 | 1.01 | 1.05 | 0.983 | 1.2 | 1.09 | 1.04 | 0.87 | 0.983 | 1.01 | 0.962 | 1.06 |
| EBC-1 | 1.02 | 0.851 | 0.98 | 0.933 | 0.901 | 1.02 | 0.952 | 0.712 | 0.535 | 1 | 1.11 | 1.02 | 0.979 | 1.04 | 1.12 | 0.931 | 1.06 | 0.895 | 1.06 | 0.955 | 0.896 |
| EKVX | 0.923 | 1.02 | 0.875 |  | 0.934 | 0.975 | 0.971 | 0.898 | 0.882 | 0.966 | 1.02 | 0.964 | 1.03 | 0.932 | 1.11 | 0.976 | 0.934 | 0.849 | 0.975 | 0.818 | 0.871 |
| EMC-BAC-2 | 0.977 | 1.04 | 0.85 | 0.93 | 0.887 | 0.95 | 0.985 | 0.957 | 1.02 | 1.01 | 1.11 | 0.83 | 0.83 | 0.886 | 1.08 | 0.986 | 0.966 | 0.974 | 0.974 |  | 0.949 |
| EPLC-272H | 0.985 | 0.894 | 0.984 | 0.753 | 0.0869 | 0.982 | 1 | 1.09 | 0.932 | 0.969 | 1.18 | 0.962 | 0.806 | 0.674 | 1.11 | 0.745 | 0.958 | 0.906 | 1.13 | 0.889 | 0.89 |
| H3255 | 1.04 | 1.05 | 0.838 |  | 0.871 | 0.917 | 0.947 | 0.905 | 0.878 | 0.963 | 1.05 | 0.875 | 1.07 | 0.858 | 1.21 | 0.999 | 0.921 | 0.926 | 0.841 | 0.781 | 0.978 |
| HARA | 1.04 | 0.979 | 0.923 | 0.598 | 0.805 | 0.931 | 0.908 | 0.873 | 0.911 | 0.963 | 1.12 | 1.05 | 0.929 | 0.821 | 1.1 | 1.07 | 0.88 | 0.99 | 1.12 | 0.878 | 1.03 |
